Experimental data taken from patent US20180110762A1, “Compositions Methods for Treating Chronic Kidney Disease” (Merck Sharp & Dohme Corp, priority 2015, published 2018).
pIC50: −log10 of the molar value.

What was measured:
[1] = target: T1, Human recombinant integrin αvβ3 (Homo sapiens, UniProt P05106+P06756); assay: Solid phase receptor assay, αvβ3 (vitronectin); assay type: binding
T1 construct: purchased R&D Systems
Experimental: (§1) The assay was performed according to the method described in International Patent Publication WO 2014/015054 A1 “Beta Amino Acid Derivatives As Integrin Antagonists.” Briefly, 96-well plates were coated overnight with purified fibronectin or vitronectin (R&D Systems) in TBS+ buffer (25 mM Tris 7.4, 137 mM NaCl, 2.7 mM KCl, 1 mM CaCl2, 1 mM MgCl2, 1 mM MnCl2). Compound A was added at different concentrations to recombinant human integrin proteins (R&D Systems) reconstituted in TBS+/0.1% bovine serum albumin, and 50 μL of this mixture were added to the empty wells of the coated plate and incubated for 1-2 hours. After 3 washes, 50 μL of biotinylated antibody (R&D Systems) in TBS+/0.1% bovine serum albumin were added. The procedure continued with three more washes, addition of 50 μL of streptavidin-conjugated horseradish peroxidase (R&D Systems), and incubation for 20 minutes. After 3 more washes, 50 μL of tetramethylbenzidine (TMB) substrate (SIGMA) were added and plates were read after 20 min by colorimetric detection at 650 nm wavelength in an EnVision Multilabel Plate Reader (Perkin Elmer). The concentrations of fibronectin used were: 2 μg/mL for the α5β1 assay and 5 μg/mL for the αvβ1 assay. The concentrations of vitronectin used were: 1 μg/mL for the αvβ3 assay and 0.25 μg/mL for the αvβ5 assay. […]

[2] = target: T1, Human recombinant integrin αvβ3; assay: Thermal shift assay (differential scanning fluorimetry), αvβ3; assay type: binding; conditions: αvβ3, 20 μM Compound A
Experimental: Differential scanning fluorimetry was performed on a LightCycler 480 II, real-time PCR instrument (Roche Diagnostics). Human recombinant integrins from R&D Systems (αvβ1, αvβ3 and α5β1) were reconstituted at a concentration of […] in assay buffer (20 mM HEPES, pH=7.3, 100 mM NaCl, 1 mM MgCl2, 1 mM MnCl2) and diluted in assay buffer with Sypro orange (SIGMA) to a final concentration of 400 nM integrin and 5× Sypro orange. A volume of 4.9 μL of this mixture of protein and dye was transferred to a 384-well plate and 100 nL of DMSO or Compound A, dissolved in DMSO, were added using an Echo 555 instrument (Labcyte). The final concentration of Compound A in the assay was 20 μM. After mixing, the assay plate was sealed, spun at 1,000×g for two minutes, and subsequently heated from 25 to 99° C. over the course of 31 min in the LightCycler 480 II instrument. Fluorescence intensity was measured using excitation/emission wavelengths of 465 and 580 nm, respectively. Changes in protein thermal stability (ΔTm) upon compound binding were analyzed by using LightCycler 480 (software provided by the manufacturer).

postmenopausal women = conditions: Phase II study; cited from earlier work
[3] = target: T2, Human recombinant integrin α5β1 (Homo sapiens, UniProt P05556+P08648); assay: Solid phase receptor assay, α5β1 (fibronectin); assay type: binding
T2 construct: purchased R&D Systems
Experimental: as §1

[4] = system: male obese ZSF1 rats (diabetic nephropathy model); assay: ZSF1 rat study: kidney mRNA expression of profibrotic genes and integrin beta3; assay type: in vivo; conditions: for Collagen I (a1) expression in the kidney / Collagen III (a1) expression in the kidney / Integrin beta3 expression in the kidney / PAI-1 expression in the kidney: obese ZSF1 rats, week 28
Experimental: The effects of Compound A (“A”) on renal function, plasma triglycerides, plasma cholesterol, kidney collagen I, kidney collagen III, renal histology, glomerular filtration rate, fibrosis score, and mRNA gene expression (profibrotic genes and integrin β3) were evaluated in male obese ZSF1 rats (a hybrid F1 of Zucker diabetic fatty rat and spontaneously hypertensive heart failure rat; a diabetic nephropathy model) when administered as in-feed for 28 weeks. Sixty obese male ZSF1 rats were randomized to five groups: Obese control (n=12), Compound A 60 mpk (n=12), Compound A 200 mpk (n=12), Compound A 400 mpk (n=12), Enalapril 10 mpk (n=12); Eight lean male ZSF1 rats were used for normal control. Renal functional changes were monitored by blood and urine analysis following in-feed dosing for 28 weeks. Compound exposure was also monitored during the study.

human podocytes = assay: Oris cell migration assay, PAN-induced podocyte motility, vitronectin coated plate; assay type: cell-based; conditions: 48 h; for % migrated cells vs control cells: VN plate
Experimental: The effects of Compound A on podocyte motility were evaluated using Oris cell migration assay kit in 96-well plates (coated with either vitronectin or fibronectin). The Oris™ Cell Migration Assay is designed with a unique cell seeding stopper or biocompatible gel, detection mask, and stopper tool. These unique plate designs generate highly reproducible results using a microscope, digital imaging system. 7 to 10-day differentiated human podocytes (100 ul of 50,000 cells/ml) were seeded in each well of the ORIS plate. After sitting at room temperature for about 15 minutes, the plate was placed into 37° C. incubator and podocytes were incubated with complete podocyte medium for 24 h. Stoppers from each well (keeping stoppers in 4 wells which were served as time zero control) were carefully removed, medium discarded, and fresh (10% FBS) podocyte medium added to each well. Podocytes were pretreated with Compound A (10 uM to 0.01 nM) for 2 h prior to puromycin animonucleoside (PAN, 30 ug/ml or 15 ug/ml) treatment. Podocytes were then treated with PAN in the presence or absence of Compound A at different concentrations (ranging from 10 uM to 0.01 nM) in 10% FBS medium for 48 h. Podocytes were then fixed with 4% paraformaldehyde in PBS for 30 minutes (adding 50 ul to each well). After discarding the fixative, podocytes were stained with Hoechst 33342 (stock […] working concentration at 5 uM) for 30 min. Podocytes were then washed with PBS three times. Finally, after adding 100 ul of PBS to each well, plate was sealed with a black cover and kept at 4° C. until image analysis. Images of podocyte motility were captured using Acumen eX3 (manufacturer TTP Labtech Ltd. address: Melbourn Science Park, Melbourn, Hertfordshire SG8 6EE, United Kingdom).
Effect of Compound A (“A”) on human podocyte motility was examined using Oris cell migration assay in vitronectin (VN) coated-96-well plate.

T1 sequence (P06756 31-992 limits assumed): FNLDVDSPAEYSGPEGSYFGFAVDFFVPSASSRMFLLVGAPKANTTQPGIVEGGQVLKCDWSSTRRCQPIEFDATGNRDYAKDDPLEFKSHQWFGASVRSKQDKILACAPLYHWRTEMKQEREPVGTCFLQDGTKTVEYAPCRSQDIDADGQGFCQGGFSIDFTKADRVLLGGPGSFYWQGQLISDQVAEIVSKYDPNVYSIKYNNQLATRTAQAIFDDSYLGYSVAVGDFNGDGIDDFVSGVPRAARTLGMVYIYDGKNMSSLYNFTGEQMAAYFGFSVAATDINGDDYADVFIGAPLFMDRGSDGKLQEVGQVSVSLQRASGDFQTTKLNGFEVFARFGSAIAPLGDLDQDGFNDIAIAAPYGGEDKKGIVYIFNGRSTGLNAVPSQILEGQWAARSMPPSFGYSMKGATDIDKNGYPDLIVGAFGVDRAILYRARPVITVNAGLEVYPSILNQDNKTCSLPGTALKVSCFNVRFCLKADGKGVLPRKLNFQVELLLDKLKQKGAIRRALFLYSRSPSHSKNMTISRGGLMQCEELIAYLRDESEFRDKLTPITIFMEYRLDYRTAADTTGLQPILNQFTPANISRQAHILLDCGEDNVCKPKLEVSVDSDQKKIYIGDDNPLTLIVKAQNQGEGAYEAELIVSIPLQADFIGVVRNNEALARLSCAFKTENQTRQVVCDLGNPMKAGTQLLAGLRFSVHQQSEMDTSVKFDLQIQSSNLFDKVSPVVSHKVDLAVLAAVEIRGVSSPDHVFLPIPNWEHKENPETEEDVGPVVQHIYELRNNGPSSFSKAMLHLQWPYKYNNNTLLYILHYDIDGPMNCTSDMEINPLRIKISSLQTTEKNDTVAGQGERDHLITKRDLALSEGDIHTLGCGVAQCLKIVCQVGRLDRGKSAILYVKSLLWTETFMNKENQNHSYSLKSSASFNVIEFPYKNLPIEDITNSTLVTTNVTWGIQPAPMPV
T1 sequence (P05106 27-718 limits assumed): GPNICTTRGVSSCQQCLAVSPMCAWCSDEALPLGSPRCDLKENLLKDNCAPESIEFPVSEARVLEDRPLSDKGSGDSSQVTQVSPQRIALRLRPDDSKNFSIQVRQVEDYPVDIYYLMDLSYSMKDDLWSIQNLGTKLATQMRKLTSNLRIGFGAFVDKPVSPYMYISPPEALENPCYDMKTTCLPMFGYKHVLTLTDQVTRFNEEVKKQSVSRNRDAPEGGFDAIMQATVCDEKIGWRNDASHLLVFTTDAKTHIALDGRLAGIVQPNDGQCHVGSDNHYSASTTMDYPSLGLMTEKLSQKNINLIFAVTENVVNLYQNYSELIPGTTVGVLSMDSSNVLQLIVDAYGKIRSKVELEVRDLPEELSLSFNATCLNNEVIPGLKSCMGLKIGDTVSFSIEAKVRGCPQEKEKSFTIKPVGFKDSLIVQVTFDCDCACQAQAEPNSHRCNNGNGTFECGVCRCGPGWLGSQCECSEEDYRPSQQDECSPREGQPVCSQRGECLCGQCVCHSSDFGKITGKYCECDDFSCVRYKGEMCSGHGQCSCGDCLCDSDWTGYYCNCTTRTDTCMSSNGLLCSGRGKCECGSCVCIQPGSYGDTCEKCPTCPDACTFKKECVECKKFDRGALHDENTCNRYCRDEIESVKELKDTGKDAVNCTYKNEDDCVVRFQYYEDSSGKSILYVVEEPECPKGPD
T2 sequence (P08648 42-995 limits assumed): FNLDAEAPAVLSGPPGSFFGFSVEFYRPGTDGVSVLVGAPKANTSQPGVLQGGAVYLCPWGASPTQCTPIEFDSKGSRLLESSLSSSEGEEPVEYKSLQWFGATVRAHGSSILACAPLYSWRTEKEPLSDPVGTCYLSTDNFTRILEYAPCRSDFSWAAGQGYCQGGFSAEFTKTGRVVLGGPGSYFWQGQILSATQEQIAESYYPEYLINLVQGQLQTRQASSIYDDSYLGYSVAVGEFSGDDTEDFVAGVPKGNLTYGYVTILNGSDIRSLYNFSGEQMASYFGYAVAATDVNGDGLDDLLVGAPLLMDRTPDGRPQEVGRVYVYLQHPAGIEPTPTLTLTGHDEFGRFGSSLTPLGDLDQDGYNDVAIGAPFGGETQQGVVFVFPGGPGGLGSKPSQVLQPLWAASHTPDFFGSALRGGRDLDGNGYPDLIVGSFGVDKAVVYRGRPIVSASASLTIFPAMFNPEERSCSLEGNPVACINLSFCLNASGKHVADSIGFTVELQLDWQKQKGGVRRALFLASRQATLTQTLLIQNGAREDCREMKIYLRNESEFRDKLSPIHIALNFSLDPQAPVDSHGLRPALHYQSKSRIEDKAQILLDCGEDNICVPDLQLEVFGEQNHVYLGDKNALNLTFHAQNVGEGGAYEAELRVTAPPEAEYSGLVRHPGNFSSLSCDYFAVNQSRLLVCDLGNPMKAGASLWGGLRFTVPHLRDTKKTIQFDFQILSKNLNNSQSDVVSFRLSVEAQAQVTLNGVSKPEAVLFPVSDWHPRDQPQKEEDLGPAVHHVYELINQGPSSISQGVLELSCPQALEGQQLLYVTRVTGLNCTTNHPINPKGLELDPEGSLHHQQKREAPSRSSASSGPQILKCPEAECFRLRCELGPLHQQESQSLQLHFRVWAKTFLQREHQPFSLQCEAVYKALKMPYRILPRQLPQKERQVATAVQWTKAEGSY
T2 sequence (P05556 21-728 limits assumed): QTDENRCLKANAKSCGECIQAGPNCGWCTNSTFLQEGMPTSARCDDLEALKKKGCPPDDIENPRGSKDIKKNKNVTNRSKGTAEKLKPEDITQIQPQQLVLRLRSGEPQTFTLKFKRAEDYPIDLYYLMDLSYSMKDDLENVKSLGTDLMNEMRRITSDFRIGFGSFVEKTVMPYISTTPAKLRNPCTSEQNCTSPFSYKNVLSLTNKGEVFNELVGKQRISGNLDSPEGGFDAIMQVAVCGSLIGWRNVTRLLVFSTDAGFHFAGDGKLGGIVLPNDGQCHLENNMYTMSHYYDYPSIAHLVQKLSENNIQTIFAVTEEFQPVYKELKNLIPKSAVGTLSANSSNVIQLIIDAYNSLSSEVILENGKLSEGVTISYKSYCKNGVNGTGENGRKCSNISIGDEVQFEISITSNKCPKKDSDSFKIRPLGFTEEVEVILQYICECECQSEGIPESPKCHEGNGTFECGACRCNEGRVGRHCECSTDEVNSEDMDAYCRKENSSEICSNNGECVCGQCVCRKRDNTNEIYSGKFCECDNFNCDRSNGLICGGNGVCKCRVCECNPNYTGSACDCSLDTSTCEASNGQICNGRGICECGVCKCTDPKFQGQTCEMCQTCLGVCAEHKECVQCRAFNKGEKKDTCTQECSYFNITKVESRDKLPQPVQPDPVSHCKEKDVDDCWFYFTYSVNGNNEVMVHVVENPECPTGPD

- pIC50 ([1]; αvβ3, first of two experiments): 8.28
- pIC50 ([1]; αvβ3, second of two experiments): 9.48
- ΔTm at 20 µM ([2]; first of two experiments): 21.5 °C
- ΔTm at 20 µM ([2]; second of two experiments): 16.4 °C
- pIC50 ([3]; α5β1, first of two experiments): 8.31
- pIC50 ([3]; α5β1, second of two experiments): 7.71
- pIC50 (human podocytes; Homo sapiens, vitronectin coated plates, PAN 30 ug/ml, read-out: IC50, inhibition of puromycin-induced human podocyte motility): 8.00
Structure (SMILES): COc1ccc([C@H](CC(=O)O)N2CCN(CCCc3ccc4c(n3)NCCC4)C2=O)cn1 [Compound A, 3-{2-Oxo-3-[3-(5,6,7,8-tetrahydro-[1,8]naphthyridin-2-yl)-propyl]imidazolidin-1-yl}-3 (S)-(6-methoxy-pyridin-3-yl)-propionic acid]
- bone density (postmenopausal women): increase bone density
- effect on expression of key profibrotic genes and integrin beta3 in the kidney vs obese vehicle ([4]; 200 mpk or 400 mpk at week 28): significantly decreased
- Collagen I (a1) expression in the kidney ([4]; 200 mpk in-feed): 0.79 ± 0.04
- Collagen III (a1) expression in the kidney ([4]; 200 mpk in-feed): 0.60 ± 0.03
- Integrin beta3 expression in the kidney ([4]; 200 mpk in-feed): 0.83 ± 0.03
- PAI-1 expression in the kidney ([4]; 200 mpk in-feed): 0.80 ± 0.03
- Collagen I (a1) expression in the kidney ([4]; 400 mpk in-feed): 0.66 ± 0.02
- Collagen III (a1) expression in the kidney ([4]; 400 mpk in-feed): 0.52 ± 0.01
- Integrin beta3 expression in the kidney ([4]; 400 mpk in-feed): 0.74 ± 0.03
- PAI-1 expression in the kidney ([4]; 400 mpk in-feed): 0.66 ± 0.03
- % migrated cells vs control cells (human podocytes; PAN 30 ug/ml + A 0.01 nM): 55.1%
- % migrated cells vs control cells (human podocytes; PAN 30 ug/ml + A 0.0316 nM): 44.0%
- % migrated cells vs control cells (human podocytes; PAN 30 ug/ml + A 0.1 nM): 43.0%
- % migrated cells vs control cells (human podocytes; PAN 30 ug/ml + A 0.316 nM): 36.6%
- % migrated cells vs control cells (human podocytes; PAN 30 ug/ml + A 1 nM): 42.1%
- % migrated cells vs control cells (human podocytes; PAN 30 ug/ml + A 3.16 nM): 31.3%
- % migrated cells vs control cells (human podocytes; PAN 30 ug/ml + A 10 nM): 28.6%
- % migrated cells vs control cells (human podocytes; PAN 30 ug/ml + A 100 nM): 19.6%
- % migrated cells vs control cells (human podocytes; PAN 30 ug/ml + A 1 uM): 16.1%
- % migrated cells vs control cells (human podocytes; PAN 30 ug/ml + A 10 uM): 16.9%
